This is an account of results in ChEMBL document CHEMBL1127656, “Articulating a pharmacophore driven synthetic strategy: Discovery of a potent substance P antagonist” (Bioorg Med Chem Lett, 1994).

The target of this experiment is Substance-P receptor (Homo sapiens, UniProt P25103). The experiment in a line: In vitro binding affinity towards human NK-1 receptor in IM-9 cells using [3H]SP of substance P antagonist. The class given is cell-based.
Substance-P receptor, sequence (P25103 whole entry): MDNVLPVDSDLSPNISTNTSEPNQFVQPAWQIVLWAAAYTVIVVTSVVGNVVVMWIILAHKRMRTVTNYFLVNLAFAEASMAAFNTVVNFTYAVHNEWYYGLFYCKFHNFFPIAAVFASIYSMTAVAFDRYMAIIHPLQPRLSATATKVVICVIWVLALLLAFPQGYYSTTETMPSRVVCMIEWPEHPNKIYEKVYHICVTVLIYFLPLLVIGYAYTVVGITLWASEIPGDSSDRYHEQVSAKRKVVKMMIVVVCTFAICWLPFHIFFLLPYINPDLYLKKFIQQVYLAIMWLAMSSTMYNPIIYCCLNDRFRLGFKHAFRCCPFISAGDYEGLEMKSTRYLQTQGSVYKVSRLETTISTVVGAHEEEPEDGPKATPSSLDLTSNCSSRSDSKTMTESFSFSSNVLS

The Ki is the dissociation constant of the complex between target and ligand, obtained from inhibition or displacement. The compound `COc1ccccc1CN[C@H]1[C@@H]2CCC[C@@H]2N[C@H]1c1ccccc1` (racemic) came in with a Ki of 2.4 nM.
